According to paper PMC3816974 (Bioorganic & medicinal chemistry, 2013):

Test system: M. tuberculosis H37Rv
Type: cell-based, Mycobacterium tuberculosis
Conditions: for frequency of spontaneous resistance: M. tuberculosis H37Rv, 10× the MIC

Structure (SMILES)	cross-resistance of mutants resistant to 44 and 52	resistance range of mutants above the MIC level of the parental strain	frequency of spontaneous resistance
CCc1cc(C(N)=S)ccn1 [ethionamide, reference compound]	not to be cross-resistant		
O=C(Nc1nc(-c2ccccn2)cs1)c1cccc(Br)c1 [Compound 52]		2–8 fold	~ 10^−5
COc1ccc(C(=O)Nc2nc(-c3ccccn3)cs2)cc1 [Compound 44]		2–8 fold	~ 10^−5
